Measured values taken from PubChem BioAssay (NCI).
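Cultured in 96-well plates, cells were exposed to test compound for 48 hours across five concentrations. The concentration for full growth arrest is given as TGI.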

How the values were obtained:
Assay in all cases: DTP human tumour cell line panel, 48 h
MALME-3M melanoma = system: MALME-3M melanoma
OVCAR-3 ovarian = system: OVCAR-3 ovarian
HCC-2998 colon = system: HCC-2998 colon
U251 CNS = system: U251 CNS
HT29 colon = system: HT29 colon
HCT-116 colon = system: HCT-116 colon
SF-539 CNS = system: SF-539 CNS
LOX IMVI melanoma = system: LOX IMVI melanoma
PC-3 prostate = system: PC-3 prostate
OVCAR-4 ovarian = system: OVCAR-4 ovarian
CAKI-1 renal = system: CAKI-1 renal
SF-295 CNS = system: SF-295 CNS
SF-268 CNS = system: SF-268 CNS
HOP-92 NSCLC = system: HOP-92 NSCLC
786-0 renal = system: 786-0 renal
RXF 393 renal = system: RXF 393 renal
HOP-62 NSCLC = system: HOP-62 NSCLC
SNB-75 CNS = system: SNB-75 CNS
NCI-H23 lung = system: NCI-H23 lung
SK-MEL-28 melanoma = system: SK-MEL-28 melanoma
OVCAR-5 ovarian = system: OVCAR-5 ovarian
SR leukemia = system: SR leukemia
NCI-H522 lung = system: NCI-H522 lung
A498 renal = system: A498 renal
UO-31 renal = system: UO-31 renal
RPMI-8226 leukemia = system: RPMI-8226 leukemia
CCRF-CEM leukemia = system: CCRF-CEM leukemia
M14 melanoma = system: M14 melanoma
SN12C renal = system: SN12C renal
UACC-257 melanoma = system: UACC-257 melanoma
SK-MEL-2 melanoma = system: SK-MEL-2 melanoma
K-562 leukemia = system: K-562 leukemia
HL-60(TB) leukemia = system: HL-60(TB) leukemia
COLO 205 colon = system: COLO 205 colon
SNB-19 CNS = system: SNB-19 CNS
EKVX NSCLC = system: EKVX NSCLC
IGROV1 ovarian = system: IGROV1 ovarian
SW-620 colon = system: SW-620 colon
MDA-MB-435 = system: MDA-MB-435
MDA-N = system: MDA-N
NCI-H226 lung = system: NCI-H226 lung
MOLT-4 leukemia = system: MOLT-4 leukemia
A549 NSCLC = system: A549 NSCLC
NCI-H460 lung = system: NCI-H460 lung
T-47D breast = system: T-47D breast
SK-MEL-5 melanoma = system: SK-MEL-5 melanoma
ACHN renal = system: ACHN renal
NCI/ADR-RES ovarian = system: NCI/ADR-RES ovarian
SK-OV-3 ovarian = system: SK-OV-3 ovarian
UACC-62 melanoma = system: UACC-62 melanoma
HS 578T breast = system: HS 578T breast
DU-145 prostate = system: DU-145 prostate
OVCAR-8 ovarian = system: OVCAR-8 ovarian
HCT-15 colon = system: HCT-15 colon
MDA-MB-231 breast = system: MDA-MB-231 breast
KM12 colon = system: KM12 colon
TK-10 renal = system: TK-10 renal
MCF7 breast = system: MCF7 breast

## Cn1c(SCc2ccc(F)cc2)nnc1C12CC3CC(CC(C3)C1)C2
MALME-3M melanoma
  TGI: 60.8 µM
OVCAR-3 ovarian
  TGI: 85.5 µM
HCC-2998 colon
  TGI: > 100 µM
U251 CNS
  TGI: > 100 µM
HT29 colon
  TGI: 39.2 µM
HCT-116 colon
  TGI: > 100 µM
SF-539 CNS
  TGI: 65.1 µM
LOX IMVI melanoma
  TGI: 45.6 µM
PC-3 prostate
  TGI: > 100 µM
OVCAR-4 ovarian
  TGI: > 100 µM
CAKI-1 renal
  TGI: > 100 µM
SF-295 CNS
  TGI: > 100 µM
SF-268 CNS
  TGI: > 100 µM
HOP-92 NSCLC
  TGI: 77.1 µM
786-0 renal
  TGI: > 100 µM
RXF 393 renal
  TGI: > 100 µM
HOP-62 NSCLC
  TGI: > 100 µM
SNB-75 CNS
  TGI: > 100 µM
NCI-H23 lung
  TGI: > 100 µM
SK-MEL-28 melanoma
  TGI: 86.2 µM
OVCAR-5 ovarian
  TGI: > 100 µM
SR leukemia
  TGI: 93.9 µM
NCI-H522 lung
  TGI: > 100 µM
A498 renal
  TGI: 48.4 µM
UO-31 renal
  TGI: > 100 µM
RPMI-8226 leukemia
  TGI: 82.5 µM
CCRF-CEM leukemia
  TGI: 43.3 µM
M14 melanoma
  TGI: 71.8 µM
SN12C renal
  TGI: > 100 µM
UACC-257 melanoma
  TGI: 91.7 µM
SK-MEL-2 melanoma
  TGI: > 100 µM
K-562 leukemia
  TGI: > 100 µM
HL-60(TB) leukemia
  TGI: 28.6 µM
COLO 205 colon
  TGI: 31.6 µM
SNB-19 CNS
  TGI: > 100 µM
EKVX NSCLC
  TGI: > 100 µM
IGROV1 ovarian
  TGI: 78.2 µM
SW-620 colon
  TGI: > 100 µM
MDA-MB-435
  TGI: 61.7 µM
MDA-N
  TGI: > 100 µM
NCI-H226 lung
  TGI: > 100 µM
MOLT-4 leukemia
  TGI: 57.1 µM
A549 NSCLC
  TGI: > 100 µM
NCI-H460 lung
  TGI: > 100 µM
T-47D breast
  TGI: > 100 µM
SK-MEL-5 melanoma
  TGI: 26.6 µM
ACHN renal
  TGI: > 100 µM
NCI/ADR-RES ovarian
  TGI: > 100 µM
SK-OV-3 ovarian
  TGI: > 100 µM
UACC-62 melanoma
  TGI: > 100 µM
HS 578T breast
  TGI: 85.1 µM
DU-145 prostate
  TGI: > 100 µM
OVCAR-8 ovarian
  TGI: > 100 µM
HCT-15 colon
  TGI: > 100 µM
MDA-MB-231 breast
  TGI: 94.5 µM

## O=C(O)c1ccccc1CC(Cc1ccc2c(c1)CCC2)C(=O)O (configuration not stated)
MALME-3M melanoma
  TGI: > 100 µM
OVCAR-3 ovarian
  TGI: > 100 µM
HCC-2998 colon
  TGI: > 100 µM
U251 CNS
  TGI: > 100 µM
HT29 colon
  TGI: > 100 µM
HCT-116 colon
  TGI: > 100 µM
SF-539 CNS
  TGI: > 100 µM
LOX IMVI melanoma
  TGI: > 100 µM
PC-3 prostate
  TGI: > 100 µM
OVCAR-4 ovarian
  TGI: > 100 µM
CAKI-1 renal
  TGI: > 100 µM
SF-295 CNS
  TGI: > 100 µM
SF-268 CNS
  TGI: > 100 µM
HOP-92 NSCLC
  TGI: > 100 µM
786-0 renal
  TGI: > 100 µM
RXF 393 renal
  TGI: > 100 µM
HOP-62 NSCLC
  TGI: > 100 µM
SNB-75 CNS
  TGI: > 100 µM
NCI-H23 lung
  TGI: > 100 µM
SK-MEL-28 melanoma
  TGI: > 100 µM
OVCAR-5 ovarian
  TGI: > 100 µM
SR leukemia
  TGI: > 100 µM
NCI-H522 lung
  TGI: > 100 µM
KM12 colon
  TGI: > 100 µM
A498 renal
  TGI: > 100 µM
UO-31 renal
  TGI: > 100 µM
RPMI-8226 leukemia
  TGI: > 100 µM
CCRF-CEM leukemia
  TGI: > 100 µM
M14 melanoma
  TGI: > 100 µM
SN12C renal
  TGI: > 100 µM
UACC-257 melanoma
  TGI: > 100 µM
SK-MEL-2 melanoma
  TGI: > 100 µM
K-562 leukemia
  TGI: > 100 µM
HL-60(TB) leukemia
  TGI: > 100 µM
COLO 205 colon
  TGI: > 100 µM
SNB-19 CNS
  TGI: > 100 µM
EKVX NSCLC
  TGI: > 100 µM
IGROV1 ovarian
  TGI: > 100 µM
SW-620 colon
  TGI: > 100 µM
MDA-MB-435
  TGI: > 100 µM
MDA-N
  TGI: > 100 µM
NCI-H226 lung
  TGI: > 100 µM
MOLT-4 leukemia
  TGI: > 100 µM
A549 NSCLC
  TGI: > 100 µM
NCI-H460 lung
  TGI: > 100 µM
T-47D breast
  TGI: > 100 µM
SK-MEL-5 melanoma
  TGI: > 100 µM
TK-10 renal
  TGI: > 100 µM
ACHN renal
  TGI: > 100 µM
NCI/ADR-RES ovarian
  TGI: > 100 µM
SK-OV-3 ovarian
  TGI: > 100 µM
HS 578T breast
  TGI: > 100 µM
DU-145 prostate
  TGI: > 100 µM
MCF7 breast
  TGI: > 100 µM
OVCAR-8 ovarian
  TGI: > 100 µM
HCT-15 colon
  TGI: > 100 µM
MDA-MB-231 breast
  TGI: > 100 µM
